System: Wnt signaling pathway-related and osteoblast-specified genes in BMSC
Test: qPCR of Wnt and osteoblast genes in BMSC
Format: cell-based, mouse
Protocol: BMMs were cultured in 6-well plates at the density of 2 × 10^5 cells/well in α-MEM supplemented with M-CSF (30 ng/ml), RANKL (50 ng/ml). The cells were then treated with or without 25 nM DZNep for 0, 1, 3, 5 days, or with various concentrations of DZNEP (0, 6.25, 25 nM) for 5 days, or with negative control siRNA, negative control siRNA with DZNep, and Foxc1 small interfering RNA (siRNA) with DZNep for 5 days. Once the culture completed, the Axygen RNA Miniprep Kit (Axygen, Union City, CA, USA) was used to extract the total RNA. BMSC were seeded in a 6-well plate at a number of 4 × 10^5 cells/well and treated with 0, 25, 50, 100 nM of DZNep combined with osteoblast-cultured medium for 24 h, or with or without 100 nM DZNep combined with osteoblast-cultured medium for 0 and 7 days, or with negative control siRNA, negative control siRNA with DZNep, and Wnt4 small interfering RNA (siRNA) with DZNep combined with osteoblast-cultured medium for 7 days. Once the culture completed, the Axygen RNA Miniprep Kit (Axygen, Union City, CA, USA) was used to extract the total RNA. After reverse transcription to obtain cDNA from the RNA template by using the Prime Script RT reagent Kit was finished. The real-time PCR assay was subsequently performed by using the SYBR® Premix Ex Taq™ II on an ABI 7500 Sequencing Detection System (Applied Biosystems, Foster City, CA). Specifically, total volume of 10 μl liquid consisted by 5 μl of SYBR® Premix Ex Taq™ II, 1 μl of diluted cDNA, 0.4 μl of mixed forward and reverse primer, and 3.6 μl of ddH2O was added into each hole of 384 PCR plate. Conditions of the 40 cycles were: 95 °C for 5 s and 60 °C for 30 s. The melting curves and reverse transcription PCR (RT-PCR) were the methods to detect the specificity of amplification product. Each target’s quantity, run in triplicate, was normalized to Actin Beta (Actb). […]

Question: `Nc1nccc2c1ncn2C1C=C(CO)C(O)C1O` (stereo not drawn) [DZNep, 3-Deazaneplanocin] was tested. Which “expression of Wnt4, Wnt1, Wnt6, Wnt10a (qPCR)” value (0, 25, 50, 100 nM, 24 h) did it give?
Answer: increased in a concentration-dependent manner

Question: What about the “expression of Wnt genes after osteoblast-cultured medium for 7 days” value (100 nM, 7 days) of the same compound?
Answer: obviously upregulated

Question: What about the “expression of osteoblast-specified genes Runx2, Ocn, Opn, Col1a1” value (BMSC, 100 nM 0 and 7 days, 0-100 nM 24 h) of the same compound?
Answer: enhanced in a time-dependent and dose-dependent manner
